Results: PubChem BioAssay AID1963851 (Molecular Pharmacology Branch, DTP, NCI, 2024)

System: 188146-221-R-J1-PDC complex spheroid viability
Assay: Anticancer human tumor 188146-221-R-J1-PDC patient-derived colon adenocarcinoma cell line growth inhibition [POLQ]
Conditions: for IC50: curve of first compound; for viability, T/C: stronger effect = lower value; active = viability on the fitted dose curve at most 10% of control; inactive = the rest
Outline: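 Three-cell-type spheroids modelling solid tumor plus stroma served as the readout system; POL inhibitors were tested individually and in combination, concentration ranges set by clinical Cmax where known.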

[1] = second compound 0.0316 µM, first compound 0.0316 µM
[2] = second compound 0.0316 µM, first compound 0.1 µM
[3] = second compound 0.0316 µM, first compound 0.316 µM
[4] = second compound 0.0316 µM, first compound 1 µM
[5] = second compound 0.0316 µM, first compound 3.16 µM
[6] = second compound 0.0316 µM, first compound 10 µM
[7] = second compound 0.1 µM, first compound 0.0316 µM
[8] = second compound 0.1 µM, first compound 0.1 µM
[9] = second compound 0.1 µM, first compound 0.316 µM
[10] = second compound 0.1 µM, first compound 1 µM
[11] = second compound 0.1 µM, first compound 3.16 µM
[12] = second compound 0.1 µM, first compound 10 µM
[13] = second compound 0.316 µM, first compound 0.0316 µM
[14] = second compound 0.316 µM, first compound 0.1 µM
[15] = second compound 0.316 µM, first compound 0.316 µM
[16] = second compound 0.316 µM, first compound 1 µM
[17] = second compound 0.316 µM, first compound 3.16 µM
[18] = second compound 0.316 µM, first compound 10 µM
[19] = second compound 1 µM, first compound 0.0316 µM
[20] = second compound 1 µM, first compound 0.1 µM
[21] = second compound 1 µM, first compound 0.316 µM
[22] = second compound 1 µM, first compound 1 µM
[23] = second compound 1 µM, first compound 3.16 µM
[24] = second compound 1 µM, first compound 10 µM
[25] = second compound 3.16 µM, first compound 0.0316 µM
[26] = second compound 3.16 µM, first compound 0.1 µM
[27] = second compound 3.16 µM, first compound 0.316 µM
[28] = second compound 3.16 µM, first compound 1 µM
[29] = second compound 3.16 µM, first compound 3.16 µM
[30] = second compound 3.16 µM, first compound 10 µM
[31] = second compound 10 µM, first compound 0.0316 µM
[32] = second compound 10 µM, first compound 0.1 µM
[33] = second compound 10 µM, first compound 0.316 µM
[34] = second compound 10 µM, first compound 1 µM
[35] = second compound 10 µM, first compound 3.16 µM
[36] = second compound 10 µM, first compound 10 µM
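Also: spheroids exposed to compounds for seven days.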
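For viability, T/C in this document: 100% = DMSO vehicle control viability.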

C#Cc1c(F)ccc2cc(O)cc(-c3ncc4c(N5CC6CCC(C5)N6)nc(OCC56CCCN5CC(F)C6)nc4c3F)c12 (stereo not given) + Nc1ccc(C#CCN(C(=O)Cc2ncc(C(F)(F)F)cc2C(F)(F)F)c2ccc(F)cc2)nn1
inactive: viability, T/C [1] 94.3% | viability, T/C [2] 100% | viability, T/C [3] 98.2% | viability, T/C [4] 89.7% | viability, T/C [5] 83.2% | viability, T/C [6] 89.4% | viability, T/C [7] 99.9% | viability, T/C [8] 105% | viability, T/C [9] 95.5% | viability, T/C [10] 95.1% | viability, T/C [11] 89.9% | viability, T/C [12] 103% | viability, T/C [13] 103% | viability, T/C [14] 83.5% | viability, T/C [15] 100% | viability, T/C [16] 96.8% | viability, T/C [17] 87.8% | viability, T/C [18] 86.6% | viability, T/C [19] 88.6% | viability, T/C [20] 86.7% | viability, T/C [21] 98.8% | viability, T/C [22] 92.3% | viability, T/C [23] 91.3% | viability, T/C [24] 80.8% | viability, T/C [25] 106% | viability, T/C [26] 102% | viability, T/C [27] 102% | viability, T/C [28] 95.9% | viability, T/C [29] 100% | viability, T/C [30] 86.5% | viability, T/C [31] 102% | viability, T/C [32] 93.5% | viability, T/C [33] 87.1% | viability, T/C [34] 105% | viability, T/C [35] 106% | viability, T/C [36] 89.5%
> 10 µM: IC50 (second compound 0.0316 µM) | IC50 (second compound 0.1 µM) | IC50 (second compound 0.316 µM) | IC50 (second compound 1 µM) | IC50 (second compound 3.16 µM) | IC50 (second compound 10 µM)

C=CC(=O)N1CCN(c2nc(=O)n(-c3c(C)ccnc3C(C)C)c3nc(-c4c(O)cccc4F)c(F)cc23)C(C)C1 (stereo not given) + Nc1ccc(C#CCN(C(=O)Cc2ncc(C(F)(F)F)cc2C(F)(F)F)c2ccc(F)cc2)nn1
inactive: viability, T/C [1] 104% | viability, T/C [2] 107% | viability, T/C [3] 103% | viability, T/C [4] 96.5% | viability, T/C [5] 104% | viability, T/C [6] 84.9% | viability, T/C [7] 95.7% | viability, T/C [8] 108% | viability, T/C [9] 101% | viability, T/C [10] 102% | viability, T/C [11] 120% | viability, T/C [12] 85.6% | viability, T/C [13] 104% | viability, T/C [14] 99.2% | viability, T/C [15] 109% | viability, T/C [16] 82.2% | viability, T/C [17] 104% | viability, T/C [18] 78% | viability, T/C [19] 108% | viability, T/C [20] 91.6% | viability, T/C [21] 92.6% | viability, T/C [22] 113% | viability, T/C [23] 97.4% | viability, T/C [24] 103% | viability, T/C [25] 96.8% | viability, T/C [26] 108% | viability, T/C [27] 92.4% | viability, T/C [28] 104% | viability, T/C [29] 97.5% | viability, T/C [30] 101% | viability, T/C [31] 101% | viability, T/C [32] 104% | viability, T/C [33] 107% | viability, T/C [34] 107% | viability, T/C [35] 98.1% | viability, T/C [36] 96.4%
> 10 µM: IC50 (second compound 0.0316 µM) | IC50 (second compound 0.1 µM) | IC50 (second compound 0.316 µM) | IC50 (second compound 1 µM) | IC50 (second compound 3.16 µM) | IC50 (second compound 10 µM)

CC1COCCN1c1cc(C2(O)CC3CCC(C2)O3)c2cnn(-c3ccn[nH]3)c2n1 (stereo not given) + Nc1ccc(C#CCN(C(=O)Cc2ncc(C(F)(F)F)cc2C(F)(F)F)c2ccc(F)cc2)nn1
0.35 µM: IC50 (second compound 0.1 µM)
active: viability, T/C [12] 8.08% | viability, T/C [18] 7.87% | viability, T/C [24] 8.87% | viability, T/C [36] 7.06%
0.209 µM: IC50 (second compound 10 µM)
0.249 µM: IC50 (second compound 0.316 µM)
0.288 µM: IC50 (second compound 1 µM)
inactive: viability, T/C [1] 88.7% | viability, T/C [2] 76.8% | viability, T/C [3] 49.4% | viability, T/C [4] 27% | viability, T/C [5] 18.9% | viability, T/C [6] 8.36% | viability, T/C [7] 109% | viability, T/C [8] 77.2% | viability, T/C [9] 54.2% | viability, T/C [10] 29.2% | viability, T/C [11] 18% | viability, T/C [13] 105% | viability, T/C [14] 72.1% | viability, T/C [15] 44.2% | viability, T/C [16] 24.3% | viability, T/C [17] 17% | viability, T/C [19] 95.8% | viability, T/C [20] 70.5% | viability, T/C [21] 52% | viability, T/C [22] 24.3% | viability, T/C [23] 15.6% | viability, T/C [25] 89.9% | viability, T/C [26] 80.7% | viability, T/C [27] 43.9% | viability, T/C [28] 26% | viability, T/C [29] 18.2% | viability, T/C [30] 7.84% | viability, T/C [31] 87.7% | viability, T/C [32] 66% | viability, T/C [33] 41.4% | viability, T/C [34] 21.1% | viability, T/C [35] 18.1%
0.328 µM: IC50 (second compound 0.0316 µM)
0.289 µM: IC50 (second compound 3.16 µM)

CCc1cc2c(N3CCc4c(cc(Cn5ccnc5)cc4-c4cn(C)nc4C(F)(F)F)C3=O)cc(C)nc2c(OC)n1 + Nc1ccc(C#CCN(C(=O)Cc2ncc(C(F)(F)F)cc2C(F)(F)F)c2ccc(F)cc2)nn1
7.01 µM: IC50 (second compound 3.16 µM)
8.54 µM: IC50 (second compound 0.0316 µM)
8.08 µM: IC50 (second compound 10 µM)
6.94 µM: IC50 (second compound 0.316 µM)
7.95 µM: IC50 (second compound 0.1 µM)
> 10 µM: IC50 (second compound 1 µM)
inactive: viability, T/C [1] 89.1% | viability, T/C [2] 101% | viability, T/C [3] 74.4% | viability, T/C [4] 85.7% | viability, T/C [5] 71.2% | viability, T/C [6] 46.3% | viability, T/C [7] 119% | viability, T/C [8] 101% | viability, T/C [9] 103% | viability, T/C [10] 95% | viability, T/C [11] 66% | viability, T/C [12] 46% | viability, T/C [13] 120% | viability, T/C [14] 101% | viability, T/C [15] 94% | viability, T/C [16] 103% | viability, T/C [17] 66.1% | viability, T/C [18] 40.8% | viability, T/C [19] 107% | viability, T/C [20] 96.3% | viability, T/C [21] 104% | viability, T/C [22] 95.2% | viability, T/C [23] 85.5% | viability, T/C [24] 50.4% | viability, T/C [25] 111% | viability, T/C [26] 115% | viability, T/C [27] 109% | viability, T/C [28] 85.8% | viability, T/C [29] 68.8% | viability, T/C [30] 42.1% | viability, T/C [31] 93.7% | viability, T/C [32] 102% | viability, T/C [33] 99% | viability, T/C [34] 84.8% | viability, T/C [35] 69.5% | viability, T/C [36] 45.6%

COc1cc2cc(C(=O)CCC(=O)O)sc2cc1OC + Nc1ccc(C#CCN(C(=O)Cc2ncc(C(F)(F)F)cc2C(F)(F)F)c2ccc(F)cc2)nn1
inactive: viability, T/C [1] 115% | viability, T/C [2] 102% | viability, T/C [3] 96.4% | viability, T/C [4] 119% | viability, T/C [5] 90.2% | viability, T/C [6] 105% | viability, T/C [7] 105% | viability, T/C [8] 115% | viability, T/C [9] 107% | viability, T/C [10] 96.2% | viability, T/C [11] 118% | viability, T/C [12] 102% | viability, T/C [13] 109% | viability, T/C [14] 100% | viability, T/C [15] 89.3% | viability, T/C [16] 107% | viability, T/C [17] 107% | viability, T/C [18] 97.4% | viability, T/C [19] 117% | viability, T/C [20] 116% | viability, T/C [21] 106% | viability, T/C [22] 96.3% | viability, T/C [23] 104% | viability, T/C [24] 102% | viability, T/C [25] 105% | viability, T/C [26] 114% | viability, T/C [27] 96.8% | viability, T/C [28] 119% | viability, T/C [29] 109% | viability, T/C [30] 118% | viability, T/C [31] 101% | viability, T/C [32] 130% | viability, T/C [33] 98.5% | viability, T/C [34] 113% | viability, T/C [35] 104% | viability, T/C [36] 120%
> 10 µM: IC50 (second compound 0.0316 µM) | IC50 (second compound 0.1 µM) | IC50 (second compound 0.316 µM) | IC50 (second compound 1 µM) | IC50 (second compound 3.16 µM) | IC50 (second compound 10 µM)
